Patent US6692939B2, “Nucleotide sequences encoding mammalian calcium activated chloride channel-adhesion molecules” (Cornell Research Foundation, Inc., priority 1997, dated 2004)

Key:
[1] = tested on: mCLCA1; test: whole cell recording in mCLCA1-transfected HEK293 cells; assay type: cell-based, murine; conditions: for effect on Ca2+ sensitive chloride current under whole cell conditions: mCLCA1-transfected HEK293 cells
From the text: (§1) In another embodiment of the invention, mCLCA1 cDNA was cut from the pBluescript vector (Stratagene) with SacI and PvuI, blunt ended with Klenow Polymerase and inserted into the tetracycline sensitive mammalian expression vector (pTet-splice, Life Technologies, Inc.) at the EcoRV site. HEK293 cells were cotransfected with mCLCAl cDNA cloned into the pTet-splice along with a vector expressing a tetracycline activator (pTet-tTak) using standard transfection techniques well known to those skilled in the art and as described above (Lipofectamine, Life Technologies, Inc.). Cells were cotransfected with a reporter vector as described above. In another illustration of this embodiment, human CLCA1, HEK293 cells were transfected with either pcDNA 3.1 containing the CLCA1 insert and a reporter vector (enhanced green fluorescent protein, EGFP, CLONTECH) or the reporter vector alone. Transfection can be carried out by standard techniques known to those skilled in the art including CaPO4 precipitation or Lipofectamine (Life Technologies).
(§2) This embodiment illustrates that the full length cDNAs of the present invention encode calcium sensitive chloride channels. The various cDNAs were used for transfection of a cell line. For electrophysiological studies, cells were also cotransfected with a reporter vector (pEGFP, CLONTECH). Cotransfection with a reporter vector allows for easy identification of transfected cells by visualization under a fluorescent microscope. Whole cell recording was then carried out in the transfected cells to determine the presence of calcium sensitive chloride channels.
(§3) Transfected cells were used for electrophysiological recording. Cells were superfused with a bath solution containing 112 mM NMDG-Cl, 30 mM sucrose, 1 mM EGTA, 0.366 mM CaCl2, 2 mM MgCl2, 5 mM N-2-hydroxy-xyethanylpiperazine-N-2-ethanesulfonic acid. Whole cell channel activity was recorded in transfected cells by using borosilicate glass electrodes (tip resistance 4-9 M ohms) filled with the bath solution. Recordings were carried out in the presence or absence of a […] channel inhibitors (DIDS, niflumic acid and DTT). To determine the effect of ionomycin on channel activity, electrodes filled with standard bath solution containing either 5 mM ATP and 1 mM EGTA in the presence of low intracellular calcium. After gigaohm seal formation, cells were clamped at +20 mV. Whole cell currents were recorded at room temperature, sampled at 5-10 kHz and filtered at 1-2 kHz. The I-V relationship was determined using 300 ms voltage steps from a holding potential of +20 mV to potentials from −100 to +100 mV at 10 mV intervals. To normalize measured membrane currents to membrane currents to membrane capacitance, the capacitive current transient recorded in response to a 10 mV hyperpolarizing pulse was integrated and divided by the given voltage to give total membrane capacitance (Cm) for each cell.

[2] = tested on: hCLCA2; test: whole cell recording in hCLCA2-transfected HEK293 cells; assay type: cell-based, human; conditions: for sensitivity of the current to inhibitor: DIDS 300 uM, DTT 2 mM, niflumic acid 100 uM, tamoxifen 10 uM
Procedure: For human CLCA2, HEK293 cells were transfected using Lipofectamine using manufacturer's instructions. For example, 5 ul lipid and 0.5 ul of CLCA2 were cloned into pcDNA 3.1 per 35 mm well in a 2-3 hour incubation. For expression studies, the 2,832 bp CLCA2 ORF was PCR amplified from human trachea poly-A^+RNA (Clontech) following reverse transcription with Superscript RNase H reverse transcriptase (Life Technologies) and random hexamer priming. PCR was performed with Pwo DNA Polymerase (Boehringer; initial denaturation at 94° C. for 3 min, 35 cycles of 94° for 50 s, 58° C. for 30s, and 72° C. for 2 min with a time increment of 3 s per cycle for each extension step (72° C.), followed by a final extension step of 72° C. for 8 min). Primer sequences were (upstream primer: SEQ ID NO:41, downstream primer: SEQ ID NO:42 with NotI-linkers underlined). PCR products were gel purified, incubated with NotI, and cloned into the expression vector pcDNA3.1 (Invitrogen). Four different PCR products were sequenced to control for potential PCR-induced sequence errors. Cells were simultaneously cotransfected with a reporter vector as described above. Chloride channel conductance activity was recorded after allowing the cells to recover for 24 hours.
as §2, §3

[3] = tested on: hCLCA1; test: whole cell recording in hCLCA1-transfected HEK293 cells; assay type: cell-based, human; conditions: for whole cell current after addition of inhibitor: hCLCA1-transfected cells, activated current 11.06 pA/pF
From the text: as §1, §2
as §3, with “To determine the effect of ionomycin on channel activity, electrodes filled with standard bath solution containing either 5 mM ATP and 1 mM EGTA in the presence of low intracellular calcium. After gigaohm seal formation, cells were clamped at +20 mV.” left out

[4] = tested on: non-transfected or control-transfected cells; test: whole cell recording in non-transfected or control-transfected cells; assay type: cell-based; conditions: ionomycin 2 uM
Procedure: as §2
Transfected cells were used for electrophysiological recording. […] Whole cell channel activity was recorded in transfected cells by using borosilicate glass electrodes (tip resistance 4-9 M ohms) filled with the bath solution. […] Whole cell currents were recorded at room temperature, sampled at 5-10 kHz and filtered at 1-2 kHz. The I-V relationship was determined using 300 ms voltage steps from a holding potential of +20 mV to potentials from −100 to +100 mV at 10 mV intervals. To normalize measured membrane currents to membrane currents to membrane capacitance, the capacitive current transient recorded in response to a 10 mV hyperpolarizing pulse was integrated and divided by the given voltage to give total membrane capacitance (Cm) for each cell.

[5] = tested on: B1GF10 melanoma cells; conditions: mouse, in vivo; cited from earlier work
[6] = tested on: lung-metastatic B16-Fl0 melanoma cells; test: tumor cell adhesion assay on Lu-ECAM-1 coated wells; assay type: cell-based; conditions: wells coated with 100 μg/ml protein; 10 minutes at 37° C.
Procedure: Recombinant (r) Lu-ECAM-1 and wild type (wt) Lu-ECAM-1 were compared in their adhesion ability to lung-metastatic B16-Fl0 melanoma cells. Using anti-Lu-ECAM-1 mAb 6D3, wtLu-ECAM-1 was purified from extracts of bovine aortic endothelial cells, and rLu-ECAM-1 was purified from extracts of transfected HEK293 cells. The tumor cell adhesion assay was performed as described previously (Zhu et al., 1992, supra). Briefly, 100 μg/ml in phosphate buffered saline of either wtLu-ECAM-1 or rLu-ECAM-1 was used to coat wells of 96 plates overnight at 4° C. Wells were then washed with tissue culture medium, and each well is seeded with a suspension of tissue culture medium and 2×10^4 tumor cells which had been radio-labelled. After being spun onto the coated wells at 15 g for 1 minute, and incubated for 10 minutes at 37° C., nonadherent tumor cells were spun off at 150 g for 5 minutes. Adherent tumor cells were then dissolved in 1% SDS and counted in a liquid scintillation counter. Tumor cell attachment is recorded as the percent cells bound of the total cells seeded. Inhibition of tumor cell adhesion is determined by first incubating the Lu-ECAM-1 coated wells with mAb 6D3 (10 μg/ml) for 1 hour at room temperature before the tumor cells are added.

Row | Molecule | effect on Ca2+ sensitive chloride current under whole cell conditions [1] | sensitivity of the current to inhibitor [2] | whole cell current after addition of inhibitor [3] [pA/pF] | further results
1 | O=S(=O)(O)c1cc(N=C=S)ccc1C=Cc1ccc(N=C=S)cc1S(=O)(=O)O [DIDS] | inhibited | sensitive | 1.63 | whole cell current after perfusion of inhibitor ([1]; 300 uM DIDS, 2 mM Ca2+, basal 12.01±6.31 pA/pF): 1.84 ±0.96 pA/pF
2 | CC/C(=C(\c1ccccc1)c1ccc(OCCN(C)C)cc1)c1ccccc1 [tamoxifen] |  | sensitive |  | 
3 | C[C@H](CCC(=O)O)C[C@H](C)C[C@H](C)C(=O)/C=C(\O)[C@H](C)C[C@H](C)C/C=C/[C@@H](C)[C@@H](O)[C@@H](C)[C@@H](O)C[C@@H]1CC[C@@](C)([C@H]2CC[C@@](C)([C@@H](C)O)O2)O1 [ionomycin] |  |  |  | whole cell current at +100 mV with ionomycin ([1]; ionomycin 2 uM, low intracellular free Ca2+, basal 2.05±1.09 pA/pF): 10.23±3.46 pA/pF; effect of ionomycin on current in non-transfected or control-transfected cells [4]: No significant effect; activation of the current by ionomycin ([2]; ionomycin 4 uM in bath, pipet about 25 nM Ca2+, 2 mM Ca2+ in the bath): activated the current; maximally activated current at +100 mV after external perfusion of ionomycin ([3]; ionomycin 2 uM, increase from 0.65 pA/pF): 11.06 pA/pF
4 | O[C@@H](CS)[C@@H](O)CS [DTT] | inhibited | sensitive | 1.67 | 
5 | O=C(O)c1cccnc1Nc1cccc(C(F)(F)F)c1 [niflumic acid] | inhibited | sensitive | 2.07 | 
6 | wtLu-ECAM-1: wild type Lu-ECAM-1 purified with mAb 6D3 from extracts of bovine aortic endothelial cells (protein, OTHER INFORMATION: Lu-ECAM-1 precursor from bovine endothelial cells, wild type Lu-ECAM-1 purified with mAb 6D3 from extracts of bovine aortic endothelial cells) MVLCLNVILFLTLHLLPGMKSSMVNLINNGYDGIVIAINPSVPEDEKLIENIKEMVTEASTYLFHATKRRVYFRNVSILIPMTWKSKSEYFIPKQESYDQADVIVANPYLKYGDDPYTLQYGRCGEKGKYIHFTPNFLLTNNFHIYGSRGRVFVHEWAHLRWGIFDEYNVDQPFYISRKNTIEATRCSTHITGINVVFKKCPGGSCITSLCRRDSQTGLYEAKCTFLPKKSQTAKESIMFMPSLHSVTEFCTEKTHNTEAPNLQNKMCNGKSTWDVIMNSVDFQNTSPMTEMNPPTHPTFSLLKSKQRVVCLVLDKSGSMSAEDRLFQMNQAAELYLIQVIEKGSLVGMVTFDSVAEIQNHLTRITDDNVYQKITAKLPQVANGGTSICRGLKAGFQAIIHSDQSTSGSEIILLTDGEDNEINSCFEDVKRSGAIIHTIALGPSAAKELETKSNMTGGYRFFANKDITGLTNAFSRISSRSGSITQQAIQLESKALKITGRKRVNGTVPVDSTVGNDTFFVVTWTIQKPEIVLQDPKGKKYKTSDFKEDKLNIRSARLQIPGIAETGTWTYSLLNNHASSQMLTVTVTTRARSPTIPPVIATAHMSQHTAHYPSPMIVYAQVSQGFLPVLGISVIAIIETEDGHQVTLELWDNGAGRDTVKNDGIYSRYFTDYYGNGRYSLKVHAQARNNTARLNLRQPQNKVLYVPGYVENGKIILNPPRPEVKDDLAKAKIEDFSRLTSGGSFTVSGAPPPGNHPSVFPPSKITDLEAKFKEDYIQLSWTAPGNVLDKGKANSYIIRISKSFMDRQEDFDNATLVNTSNLIPKEAGSKENFEFKPEHFRVENGTKFYISVQAINEANLISEVSHIVQAIKFIPLPEDSVHDLGTKISEITLAILGLPMIFSVF |  |  |  | prevention or inhibition of metastatic colonization of the lungs by B1GF10 cells [5]: inhibition of metastatic colonization; adhesion of lung-metastatic tumor cells supported (percent cells bound of the total cells seeded) [6]: 43%
